Assay results published in ChEMBL document CHEMBL2331150, “Aaptamine derivatives from the Indonesian sponge Aaptos suberitoides” (J Nat Prod, 2013).
pIC50: −log10 of the molar value.

Assays:
L5178Y [1] = assay: Cytotoxic activity against mouse L5178Y cells assessed as growth inhibition at 10 ug/ml by MTT assay; format: functional; conditions: read-out: GI
L5178Y [2] = assay: Cytotoxic activity against mouse L5178Y cells by MTT assay; format: functional, cell-based

SMILES | inhibition of growth at 10 µg/mL (L5178Y [1]) [%] | pIC50 (L5178Y [2])
COc1cc2ccnc3c2c(c1OC)NC=C3 [AAPTAMINE] | 100 | 5.08
COc1cc2ccnc3ccn4cnc1c4c23 | 98.7 | 4.87
COC1=Cc2ccnc3c(N)cnc(c23)C1=O | 64.4 | 
COC1=Cc2ccnc3ccnc(c23)C1(OC)OC | 51.2 | 
COc1cc2ccnc3ccn4c(=O)cnc1c4c23 | 0 | 
COc1cc2cc(C(=O)c3ccccc3)nc3c2c(c1O)NC=C3 | 93.7 | 5.26
COc1nc2c(OC)cc3ccnc4ccn(c1=O)c2c34 | 38.6 | 
